Experimental data taken from article PMC11062922 (Nature Chemical Biology, 2023).
Like-named read-outs stand apart in the source and are kept apart here.

What was measured:
[1] = biological target: T1, endogenous kinases and other proteins enriched by Kinobeads from mixed cancer cell lysates (Homo sapiens, UniProt Q12851); assay: Kinobeads pulldown, full dose-response (eight doses); format: binding; conditions: target MAP4K2;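 note: competition with Kinobeads ε after inhibitor preincubation in lysate (5 mg/ml protein) for 45 min at 4 °C, DMSO control, doses 0.3–1,000 nM, label-free LC–MS/MS quantification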
T1 construct: to maximize the representation of endogenous proteins; endogenous in cells

[2] = biological target: T2, endogenous kinases and other proteins enriched by Kinobeads from mixed cancer cell lysates (Homo sapiens, UniProt O94804); assay: as above; format: binding; conditions: target STK10
T2 construct: endogenous in cells

[3] = biological target: T3, endogenous kinases and other proteins enriched by Kinobeads from mixed cancer cell lysates (Homo sapiens, UniProt Q9P289); assay: as above; format: binding; conditions: target STK26
T3 construct: endogenous in cells

[4] = biological target: T4, endogenous kinases and other proteins enriched by Kinobeads from mixed cancer cell lysates (Homo sapiens, UniProt P27448); assay: as above; format: binding; conditions: target MARK3
T4 construct: endogenous in cells

[5] = biological target: T5, endogenous kinases and other proteins enriched by Kinobeads from mixed cancer cell lysates (Homo sapiens, UniProt O94806); assay: as above; format: binding; conditions: target PRKD3
T5 construct: endogenous in cells

[6] = biological target: T6, endogenous kinases and other proteins enriched by Kinobeads from mixed cancer cell lysates (Homo sapiens, UniProt Q13873); assay: as above; format: binding; conditions: target BMPR2
T6 construct: endogenous in cells

[7] = biological target: T7, endogenous kinases and other proteins enriched by Kinobeads from mixed cancer cell lysates (Homo sapiens, UniProt Q96PY6); assay: as above; format: binding; conditions: target NEK1
T7 construct: endogenous in cells

[8] = biological target: T8, endogenous kinases and other proteins enriched by Kinobeads from mixed cancer cell lysates (Homo sapiens, UniProt Q15375); assay: as above; format: binding; conditions: target EPHA7
T8 construct: endogenous in cells

[9] = biological target: T9, PIK3CA (Homo sapiens, UniProt P42336); assay: Kinobeads competition binding, Lestaurtinib control replicates: PIK3CA; conditions: read-out: Lestaurtinib Drugmatrix value; Gene Name PIK3CA; one column per experiment number and replicate (R1-R3)
T9 construct: a mixture of lysates from five cancer cell lines; endogenous in cells

[10] = biological target: T10, EPHA5 (Homo sapiens, UniProt P54756); assay: Kinobeads two-dose competition binding: EPHA5; conditions: read-out: Lestaurtinib Drugmatrix value, Gene Name EPHA5
T10 construct: endogenous in cells

[11] = biological target: T11, FYN (Homo sapiens, UniProt P06241); assay: Kinobeads two-dose competition binding: FYN; conditions: read-out: Lestaurtinib Drugmatrix value, Gene Name FYN; target FYN; each column = one Lestaurtinib control replicate (batch_R1-R3)
T11 construct: endogenous in cells

[12] = biological target: T12, AURKB (Homo sapiens, UniProt Q96GD4); assay: Kinobeads two-dose competition binding: AURKB; conditions: read-out: Lestaurtinib Drugmatrix value, Gene Name AURKB
T12 construct: endogenous in cells

[13] = system: 468 kinases; set-up: KINOMEScan: unit not given here; conditions: cited from earlier work; for KINOMEScan: published data
[14] = biological target: T13, CSNK2A1 (Homo sapiens, UniProt P68400); assay: NanoBRET in-cell target engagement in HEK293T cells: CSNK2A1; format: cell-based
T13 construct: full-length PKN3, CSNK2A1 or CSNK2A2 ORF; host or cells: HEK293T
Procedure: The NanoBRET assay was performed as described previously[28],[58]. In brief, full-length PKN3, CSNK2A1 or CSNK2A2 ORF (PKN3 vector was a kind gift of Promega, Vectors for […]: NV2981, NV1191) cloned in frame with a C-terminal NanoLuc-fusion, respectively, were transfected into HEK293T cells using FuGENE HD (Promega, E2312) and proteins were allowed to express for 20 h. Serially diluted inhibitor and NanoBRET Kinase Tracer K5 (Promega, N2530) at 500 nM (PKN3) or NanoBRET Kinase Tracer K10 (Promega, N2840) at 500 nM ([…]) were pipetted into 384-well plates using an Echo acoustic dispenser (Labcyte). The PKN3, CSNK2A1 or CSNK2A2 transfected cells were added at a density of 2 × 10^5 cells per ml after trypsinization and resuspending in Opti-MEM without phenol red (Life Technologies). The system was allowed to equilibrate for 2 h at 37 °C and 5% CO2 before BRET measurements. BRET signaling was measured by adding NanoBRET NanoGlo Substrate and Extracellular NanoLuc Inhibitor (Promega) according to the manufacturer’s protocol. Filtered luminescence was measured on a PHERAstar plate reader (BMG Labtech) equipped with a luminescence filter pair (450 nm BP filter (donor) and 610 LP filter (acceptor)). Competitive displacement data were then graphed using GraphPad Prism software (v.5.01) using a three-parameter curve fit with the following equation Y=bottom+(top−bottom)/1+10^logIC50−X×hillslope
Experiments were performed with at least two biological and two technical replicates.

T13 sequence (P68400 whole entry): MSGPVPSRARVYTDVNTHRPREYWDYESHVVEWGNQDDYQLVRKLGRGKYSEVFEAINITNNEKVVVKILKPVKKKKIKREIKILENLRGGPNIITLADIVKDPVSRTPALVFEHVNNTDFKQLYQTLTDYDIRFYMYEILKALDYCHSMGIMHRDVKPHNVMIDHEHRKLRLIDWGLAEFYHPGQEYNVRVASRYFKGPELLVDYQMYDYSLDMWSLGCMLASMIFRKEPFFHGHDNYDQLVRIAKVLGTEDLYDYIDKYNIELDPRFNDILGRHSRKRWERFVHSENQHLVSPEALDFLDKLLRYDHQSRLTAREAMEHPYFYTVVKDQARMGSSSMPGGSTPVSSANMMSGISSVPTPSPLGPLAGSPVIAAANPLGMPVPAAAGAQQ
T4 sequence (P27448 whole entry): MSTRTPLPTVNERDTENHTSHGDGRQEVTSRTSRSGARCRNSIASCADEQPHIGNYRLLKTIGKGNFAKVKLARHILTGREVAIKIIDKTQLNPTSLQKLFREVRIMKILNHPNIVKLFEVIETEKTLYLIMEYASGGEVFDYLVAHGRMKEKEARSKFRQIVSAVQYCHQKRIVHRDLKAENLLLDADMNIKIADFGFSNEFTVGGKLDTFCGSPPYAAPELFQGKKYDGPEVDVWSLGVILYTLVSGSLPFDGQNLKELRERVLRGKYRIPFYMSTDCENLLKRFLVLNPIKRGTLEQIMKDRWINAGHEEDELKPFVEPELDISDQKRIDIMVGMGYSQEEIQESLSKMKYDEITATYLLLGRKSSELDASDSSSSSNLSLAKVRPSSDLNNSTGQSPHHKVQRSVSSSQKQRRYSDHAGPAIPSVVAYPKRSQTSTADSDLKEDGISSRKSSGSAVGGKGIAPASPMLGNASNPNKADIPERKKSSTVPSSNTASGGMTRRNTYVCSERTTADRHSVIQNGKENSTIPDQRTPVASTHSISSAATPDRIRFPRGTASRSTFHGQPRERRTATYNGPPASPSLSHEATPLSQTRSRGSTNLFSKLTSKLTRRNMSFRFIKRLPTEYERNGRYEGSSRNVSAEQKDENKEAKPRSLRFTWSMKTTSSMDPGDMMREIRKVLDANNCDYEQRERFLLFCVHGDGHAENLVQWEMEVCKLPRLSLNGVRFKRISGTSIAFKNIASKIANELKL
T7 sequence (Q96PY6 whole entry): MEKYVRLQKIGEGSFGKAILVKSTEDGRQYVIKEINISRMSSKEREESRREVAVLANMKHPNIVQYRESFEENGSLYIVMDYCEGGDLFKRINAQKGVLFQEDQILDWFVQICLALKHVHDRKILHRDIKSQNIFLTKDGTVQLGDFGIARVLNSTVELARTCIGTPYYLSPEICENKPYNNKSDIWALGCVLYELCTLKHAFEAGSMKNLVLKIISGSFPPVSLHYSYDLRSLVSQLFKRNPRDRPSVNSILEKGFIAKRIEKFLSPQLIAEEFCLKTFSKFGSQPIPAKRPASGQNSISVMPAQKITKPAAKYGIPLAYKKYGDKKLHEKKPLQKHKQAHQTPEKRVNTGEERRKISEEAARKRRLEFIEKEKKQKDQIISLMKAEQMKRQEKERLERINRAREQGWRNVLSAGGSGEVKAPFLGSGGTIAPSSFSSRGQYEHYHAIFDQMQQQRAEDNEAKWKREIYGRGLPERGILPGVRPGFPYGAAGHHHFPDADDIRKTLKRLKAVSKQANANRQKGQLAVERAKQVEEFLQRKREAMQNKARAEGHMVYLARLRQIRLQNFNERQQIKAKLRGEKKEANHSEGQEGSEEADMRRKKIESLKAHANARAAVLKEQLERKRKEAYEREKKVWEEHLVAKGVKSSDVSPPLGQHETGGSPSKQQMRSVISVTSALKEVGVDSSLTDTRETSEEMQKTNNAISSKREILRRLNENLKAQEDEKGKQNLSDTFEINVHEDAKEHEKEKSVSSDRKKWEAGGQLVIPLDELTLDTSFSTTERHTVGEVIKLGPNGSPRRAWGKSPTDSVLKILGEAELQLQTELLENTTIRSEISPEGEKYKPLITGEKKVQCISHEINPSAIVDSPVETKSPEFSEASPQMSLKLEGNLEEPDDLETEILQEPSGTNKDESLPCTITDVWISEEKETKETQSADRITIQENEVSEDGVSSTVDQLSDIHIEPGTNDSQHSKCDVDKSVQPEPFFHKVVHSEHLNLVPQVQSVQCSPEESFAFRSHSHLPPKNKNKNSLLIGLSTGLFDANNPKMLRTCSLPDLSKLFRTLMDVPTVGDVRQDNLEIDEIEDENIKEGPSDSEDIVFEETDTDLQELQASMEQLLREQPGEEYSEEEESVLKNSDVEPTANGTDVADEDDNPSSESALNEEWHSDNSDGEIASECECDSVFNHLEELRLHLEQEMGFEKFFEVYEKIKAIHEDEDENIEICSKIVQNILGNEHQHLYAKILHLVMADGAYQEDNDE
T5 sequence (O94806 whole entry): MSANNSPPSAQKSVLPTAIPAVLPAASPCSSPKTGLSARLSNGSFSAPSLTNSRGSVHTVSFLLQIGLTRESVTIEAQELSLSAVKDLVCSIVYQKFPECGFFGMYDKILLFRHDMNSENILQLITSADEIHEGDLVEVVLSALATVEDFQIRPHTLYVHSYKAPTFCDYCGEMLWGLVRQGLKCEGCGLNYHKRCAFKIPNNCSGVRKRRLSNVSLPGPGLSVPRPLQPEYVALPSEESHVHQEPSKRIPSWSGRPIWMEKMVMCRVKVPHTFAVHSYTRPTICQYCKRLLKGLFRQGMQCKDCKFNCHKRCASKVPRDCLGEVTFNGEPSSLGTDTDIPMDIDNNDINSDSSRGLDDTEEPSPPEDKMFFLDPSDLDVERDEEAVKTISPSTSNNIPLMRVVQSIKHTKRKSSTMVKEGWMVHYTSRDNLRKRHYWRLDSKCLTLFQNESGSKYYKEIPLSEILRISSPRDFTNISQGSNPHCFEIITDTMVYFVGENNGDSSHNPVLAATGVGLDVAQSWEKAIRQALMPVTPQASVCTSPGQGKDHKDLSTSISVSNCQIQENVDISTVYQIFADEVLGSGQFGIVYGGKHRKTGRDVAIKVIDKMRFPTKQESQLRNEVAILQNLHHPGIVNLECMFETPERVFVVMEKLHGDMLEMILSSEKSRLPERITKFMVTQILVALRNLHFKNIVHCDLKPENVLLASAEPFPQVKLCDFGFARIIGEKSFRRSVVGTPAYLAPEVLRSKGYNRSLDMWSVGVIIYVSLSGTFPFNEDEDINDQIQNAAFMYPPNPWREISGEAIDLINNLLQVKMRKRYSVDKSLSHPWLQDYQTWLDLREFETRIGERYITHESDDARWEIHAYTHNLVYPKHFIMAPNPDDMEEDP
T2 sequence (O94804 whole entry): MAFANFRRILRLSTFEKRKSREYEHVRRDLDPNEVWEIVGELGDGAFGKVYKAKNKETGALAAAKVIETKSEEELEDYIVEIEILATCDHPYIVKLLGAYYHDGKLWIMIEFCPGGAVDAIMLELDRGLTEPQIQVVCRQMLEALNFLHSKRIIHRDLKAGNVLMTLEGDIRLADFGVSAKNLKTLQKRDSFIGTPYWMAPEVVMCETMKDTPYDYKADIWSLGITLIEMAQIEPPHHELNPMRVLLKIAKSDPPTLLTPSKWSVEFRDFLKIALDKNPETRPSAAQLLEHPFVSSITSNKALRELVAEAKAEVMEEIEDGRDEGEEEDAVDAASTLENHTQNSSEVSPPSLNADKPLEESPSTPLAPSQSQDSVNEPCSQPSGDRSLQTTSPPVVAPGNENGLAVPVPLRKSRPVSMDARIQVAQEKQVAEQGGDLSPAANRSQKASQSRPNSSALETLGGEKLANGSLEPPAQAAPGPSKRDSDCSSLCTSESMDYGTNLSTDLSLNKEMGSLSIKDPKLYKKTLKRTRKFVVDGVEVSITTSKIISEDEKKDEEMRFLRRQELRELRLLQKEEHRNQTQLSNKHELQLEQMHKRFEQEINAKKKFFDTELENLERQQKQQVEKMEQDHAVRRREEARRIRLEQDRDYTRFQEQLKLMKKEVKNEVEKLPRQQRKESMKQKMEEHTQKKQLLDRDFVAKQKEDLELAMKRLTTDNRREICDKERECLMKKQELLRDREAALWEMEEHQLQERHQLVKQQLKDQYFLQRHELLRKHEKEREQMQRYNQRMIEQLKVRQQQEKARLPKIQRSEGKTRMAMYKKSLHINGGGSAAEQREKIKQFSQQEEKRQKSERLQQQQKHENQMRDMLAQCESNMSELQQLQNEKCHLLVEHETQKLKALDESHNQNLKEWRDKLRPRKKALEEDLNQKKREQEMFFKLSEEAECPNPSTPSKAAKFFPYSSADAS
T3 sequence (Q9P289 whole entry): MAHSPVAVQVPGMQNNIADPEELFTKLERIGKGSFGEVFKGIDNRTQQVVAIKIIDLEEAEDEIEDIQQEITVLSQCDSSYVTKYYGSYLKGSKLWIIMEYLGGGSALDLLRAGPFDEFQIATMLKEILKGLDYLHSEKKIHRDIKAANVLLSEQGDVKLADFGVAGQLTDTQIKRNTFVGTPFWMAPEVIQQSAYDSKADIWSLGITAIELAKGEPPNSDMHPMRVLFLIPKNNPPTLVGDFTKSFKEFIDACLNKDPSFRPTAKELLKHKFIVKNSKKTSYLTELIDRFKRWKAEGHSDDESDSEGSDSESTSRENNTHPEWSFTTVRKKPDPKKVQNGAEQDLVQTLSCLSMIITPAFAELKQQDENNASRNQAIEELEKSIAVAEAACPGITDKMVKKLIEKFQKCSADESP
T12 sequence (Q96GD4 whole entry): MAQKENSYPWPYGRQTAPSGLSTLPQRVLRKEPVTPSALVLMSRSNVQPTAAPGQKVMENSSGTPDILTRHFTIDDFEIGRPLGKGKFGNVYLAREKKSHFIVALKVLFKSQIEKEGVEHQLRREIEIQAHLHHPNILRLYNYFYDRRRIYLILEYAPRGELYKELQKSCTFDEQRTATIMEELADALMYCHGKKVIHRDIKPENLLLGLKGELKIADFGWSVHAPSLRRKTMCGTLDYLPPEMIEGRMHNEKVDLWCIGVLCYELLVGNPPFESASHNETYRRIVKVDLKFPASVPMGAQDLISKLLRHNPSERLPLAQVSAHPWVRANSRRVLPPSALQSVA

## Cn1cc(-c2nc(N[C@@H]3CCCC[C@@H]3N)c(F)c3c2C(=O)NC3)cn1 [TAK659]
[1]
  EC50: 595 nM
[1]; read-out: apparent Kd
  Kd: 459 nM
[2]
  EC50: 725 nM
[2]; read-out: apparent Kd
  Kd: 725 nM
[3]
  EC50: 363 nM
[3]; read-out: apparent Kd
  Kd: 275 nM
[4]
  EC50: 680 nM
[4]; read-out: apparent Kd
  Kd: 670 nM
[5]
  EC50: 1410 nM
[5]; read-out: apparent Kd
  Kd: 1180 nM
[6]
  EC50: 325 nM
[6]; read-out: apparent Kd
  Kd: 257 nM
[7]
  EC50: 589 nM
[7]; read-out: apparent Kd
  Kd: 529 nM
[8]
  EC50: 810 nM
[8]; read-out: apparent Kd
  Kd: 617 nM

## C[C@]12O[C@H](C[C@]1(O)CO)n1c3ccccc3c3c4c(c5c6ccccc6n2c5c31)CNC4=O [Lestaurtinib]
[9]
  potency estimated from few doses: 156 nM
[10]
  potency estimated from few doses: 255 nM
[11]
  potency estimated from few doses: 817 nM
[12]
  potency estimated from few doses: 146 nM

## COc1cc(Nc2ncc3c(C)nc(-c4cc5ccccc5[nH]4)n3n2)cc(OC)c1OC [GW869516X]
[13]; broad KINOMEscan assay covering 468 kinases, ref a previous study
  number of kinases with more than 70% inhibition of binding: 33
[13]; kinase AMPK-alpha1
  KINOMEScan: 89
[13]; kinase AMPK-alpha2
  KINOMEScan: 61
[13]; kinase BLK
  KINOMEScan: 60
[13]; kinase CIT
  KINOMEScan: 100
[13]; kinase CLK1
  KINOMEScan: 88
[13]; kinase CLK2
  KINOMEScan: 75
[13]; kinase CSNK2A1
  KINOMEScan: 96.4
[13]; kinase CSNK2A2
  KINOMEScan: 99.7
[13]; kinase DDR1
  KINOMEScan: 52
[13]; kinase DDR2
  KINOMEScan: 52
[13]; kinase DYRK1A
  KINOMEScan: 85
[13]; kinase DYRK1B
  KINOMEScan: 81
[13]; kinase EPHB1
  KINOMEScan: 58
[13]; kinase FLT3-autoinhibited
  KINOMEScan: 75
[13]; kinase FLT3
  KINOMEScan: 96.3
[13]; kinase GCN2(Kin.Dom.2,S808G)
  KINOMEScan: 88
[13]; kinase HIPK1
  KINOMEScan: 79
[13]; kinase INSRR
  KINOMEScan: 53
[13]; kinase JAK1(JH2domain-pseudokinase)
  KINOMEScan: 98.5
[13]; kinase JAK2(JH1domain-catalytic)
  KINOMEScan: 54
[13]; kinase KIT
  KINOMEScan: 72
[13]; kinase LCK
  KINOMEScan: 71
[13]; kinase MAP3K4
  KINOMEScan: 52
[13]; kinase MEK5
  KINOMEScan: 78
[13]; kinase MERTK
  KINOMEScan: 56
[13]; kinase MLK1
  KINOMEScan: 93.8
[13]; kinase MLK2
  KINOMEScan: 89
[13]; kinase MLK3
  KINOMEScan: 87
[13]; kinase NEK2
  KINOMEScan: 70
[13]; kinase NEK3
  KINOMEScan: 89
[13]; kinase NEK5
  KINOMEScan: 99
[13]; kinase NEK6
  KINOMEScan: 99.6
[13]; kinase NEK7
  KINOMEScan: 99.7
[13]; kinase NEK9
  KINOMEScan: 90
[13]; kinase NEK11
  KINOMEScan: 86
[13]; kinase PAK3
  KINOMEScan: 69
[13]; kinase PIP5K1C
  KINOMEScan: 89
[13]; kinase PIP5K2C
  KINOMEScan: 90.3
[13]; kinase PKAC-beta
  KINOMEScan: 51
[13]; kinase RSK1(Kin.Dom.1-N-terminal)
  KINOMEScan: 91.7
[13]; kinase RSK3(Kin.Dom.1-N-terminal)
  KINOMEScan: 66
[13]; kinase SLK
  KINOMEScan: 63
[13]; kinase SRC
  KINOMEScan: 90.1
[13]; kinase STK16
  KINOMEScan: 86
[13]; kinase SYK
  KINOMEScan: 53
[13]; kinase TBK1
  KINOMEScan: 58
[13]; kinase TYK2(JH2domain-pseudokinase)
  KINOMEScan: 82
[13]; kinase ULK2
  KINOMEScan: 51
[13]; kinase WEE2
  KINOMEScan: 85
[14]; CSNK2A1, replicate 1, read-out: NanoBRET Rep1
  IC50: 471 nM
[14]; CSNK2A1, replicate 2, read-out: NanoBRET Rep2
  IC50: 421 nM
[14]; HEK293T cells, in-cell target engagement, read-out: IC50 CSNK2A1 NanoBRET
  IC50: 446 nM
